Test results published in patent publication EP0776155B1, “DELIVERY OF EXOGENOUS CHEMICAL SUBSTANCES TO PLANT TISSUES” (MONSANTO COMPANY, priority 1994, dated 1996).

Key:
[1] = system: common lambsquarter (Chenopodium album, CHEAL); test: Example 46: percent control, various propelled particulate abrasives, glyphosate spray; format: in vivo; details: glyphosate 0.11 kg a.e./ha, 200-mesh
Experimental: (§1) In this Example illustrative of the invention, common lambsquarter (Chenopodium album, CHEAL) seeds were planted in 4-inch (10.1-cm) square pots filled with a soil mix consisting of 50% Metromix 350 plus 50% silt loam to which 100 g/cu ft (3.57 kg/m^3) Osmocote fertilizer were added, and the seeds were covered with the same soil mix without added fertilizer. […] The same settings were maintained before and after treatment.
Physical injury in this Example was inflicted on the above-ground portions of the plants, approximately 2 weeks after planting, by various propelled particulate abrasives. This was applied using the same sandblaster as used in Example 47. For this Example, air pressure was maintained at 40 lb/sq inch (276 kiloPascals), the nozzle was set 16 inches (41 cm) above the plant canopy, track speed was under 1 mile/hour (1.6 km/hr) and one pass was made with the sandblaster. […] Some plants received no abrasion.
Materials used as abrasive agents in this study were: • garnet, 200-mesh as used in Example 47 • glass cullet, 1040 supplied by Universal • glass cullet, 1035 supplied by Universal • aluminum oxide type B, 120-mesh • white silica sand, 1.0 profile size, supplied by Unimin • glass beads, 140-270 mesh • Scott's Lawn & Garden fertilizer granules ground to a fine powder using a Retsch 2M-1 mill
(§2) Plants were then assigned to different herbicide treatments in a factorial experimental design with 2 replications. All plants for each herbicide treatment were sprayed at the same time using a track sprayer calibrated to deliver 20 gallons/acre (187 liters/hectare) water with an 8002E nozzle having a 50-mesh screen, 16 inches (41 cm) above the plant canopy. In these Examples the herbicide used was glyphosate as its isopropylamine salt, in the form of the aqueous concentrate formulation MON 2139 of Monsanto Company. Spray solutions were made from stock solutions prepared by dilution of MON 2139 in water.
After an interval of 12 days, a visual evaluation was performed to estimate herbicidal efficacy as percent control of treated plants compared to untreated check plants.

[2] = system: velvetleaf (Abutilon theophrasti, ABUTH); test: Example 50: percent control, KOH chemical corrosive or garnet abrasion then glyphosate spray; format: in vivo; details: 11 days after glyphosate application
Experimental: as §1, with “velvetleaf (Abutilon theophrasti, ABUTH)” for “common lambsquarter (Chenopodium album, CHEAL)”, “loam soil” for “loam”
Physical injury in this Example was inflicted on the above-ground portions of the plants, 17 days after planting, by a propelled chemical corrosive, a 2.5% weight/weight aqueous potassium hydroxide (KOH) solution. This solution was applied using a track sprayer calibrated to deliver 20 gallons/acre (187 liters/ha) with an 8002E nozzle having a 50-mesh screen, 16 inches (41 cm) above the plant canopy. Plants were allowed to dry for 1 hour after KOH treatment. Other plants received injury by abrasion using a hand-held Sears Craftsman™ sandblaster as described in Examples 1-9. A third set of plants received no abrasion or corrosion with KOH.
as §2, with “with 3” for “with 2”, “(187 liters/ha)” for “(187 liters/hectare)”
After an interval of 11 days, a visual evaluation was performed to estimate herbicidal efficacy as percent control of treated plants compared to untreated check plants.

## O=C(O)CNCP(=O)(O)O [glyphosate, N-phosphonomethylglycine]
[1]; aluminum oxide, abrasive rate* (kg/ha) 143, calculated based on garnet
  percent control of CHEAL 12 days after glyphosate application: 46%
[1]; aluminum oxide, abrasive rate* (kg/ha) 256, calculated based on garnet
  percent control of CHEAL 12 days after glyphosate application: 50%
[1]; fertilizer, abrasive rate* (kg/ha) 143, calculated based on garnet
  percent control of CHEAL 12 days after glyphosate application: 25%
[1]; fertilizer, abrasive rate* (kg/ha) 256, calculated based on garnet
  percent control of CHEAL 12 days after glyphosate application: 34%
[1]; garnet, abrasive rate* (kg/ha) 143
  percent control of CHEAL 12 days after glyphosate application: 52%
[1]; garnet, abrasive rate* (kg/ha) 256
  percent control of CHEAL 12 days after glyphosate application: 37%
[1]; glass beads, abrasive rate* (kg/ha) 143, calculated based on garnet
  percent control of CHEAL 12 days after glyphosate application: 62%
[1]; glass beads, abrasive rate* (kg/ha) 256, calculated based on garnet
  percent control of CHEAL 12 days after glyphosate application: 43%
[1]; glass cullet, 1035, abrasive rate* (kg/ha) 143, calculated based on garnet
  percent control of CHEAL 12 days after glyphosate application: 28%
[1]; glass cullet, 1035, abrasive rate* (kg/ha) 256, calculated based on garnet
  percent control of CHEAL 12 days after glyphosate application: 48%
[1]; glass cullet, 1040, abrasive rate* (kg/ha) 143, calculated based on garnet
  percent control of CHEAL 12 days after glyphosate application: 38%
[1]; glass cullet, 1040, abrasive rate* (kg/ha) 256, calculated based on garnet
  percent control of CHEAL 12 days after glyphosate application: 20%
[1]; white silica sand, abrasive rate* (kg/ha) 143, calculated based on garnet
  percent control of CHEAL 12 days after glyphosate application: 38%
[1]; white silica sand, abrasive rate* (kg/ha) 256, calculated based on garnet
  percent control of CHEAL 12 days after glyphosate application: 50%
[2]; glyphosate rate 0.0140 kg a.e./ha, injury by abrasion
  percent control of ABUTH: 30%
[2]; glyphosate rate 0.0140 kg a.e./ha, injury by corrosion (KOH)
  percent control of ABUTH: 7%
[2]; glyphosate rate 0.0140 kg a.e./ha, no physical injury
  percent control of ABUTH: 0%
[2]; glyphosate rate 0.028 kg a.e./ha, injury by abrasion
  percent control of ABUTH: 70%
[2]; glyphosate rate 0.028 kg a.e./ha, injury by corrosion (KOH)
  percent control of ABUTH: 13%
[2]; glyphosate rate 0.028 kg a.e./ha, no physical injury
  percent control of ABUTH: 0%
[2]; glyphosate rate 0.056 kg a.e./ha, injury by abrasion
  percent control of ABUTH: 75%
[2]; glyphosate rate 0.056 kg a.e./ha, injury by corrosion (KOH)
  percent control of ABUTH: 48%
[2]; glyphosate rate 0.056 kg a.e./ha, no physical injury
  percent control of ABUTH: 3%
[2]; glyphosate rate 0.11 kg a.e./ha, injury by abrasion
  percent control of ABUTH: 83%
[2]; glyphosate rate 0.11 kg a.e./ha, injury by corrosion (KOH)
  percent control of ABUTH: 73%
[2]; glyphosate rate 0.11 kg a.e./ha, no physical injury
  percent control of ABUTH: 0%
[2]; glyphosate rate 0.22 kg a.e./ha, injury by abrasion
  percent control of ABUTH: 96%
[2]; glyphosate rate 0.22 kg a.e./ha, injury by corrosion (KOH)
  percent control of ABUTH: 85%
[2]; glyphosate rate 0.22 kg a.e./ha, no physical injury
  percent control of ABUTH: 81%
[2]; glyphosate rate 0.45 kg a.e./ha, injury by abrasion
  percent control of ABUTH: 99%
[2]; glyphosate rate 0.45 kg a.e./ha, injury by corrosion (KOH)
  percent control of ABUTH: 91%
[2]; glyphosate rate 0.45 kg a.e./ha, no physical injury
  percent control of ABUTH: 87%
[2]; glyphosate rate 0.89 kg a.e./ha, no physical injury
  percent control of ABUTH: 100%
